Assay results as given in ChEMBL document CHEMBL1201862, “PubChem BioAssay data set” (2004).
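Cultured in 96-well plates, cells were exposed to test compound for 48 hours across five concentrations. Here, GI50 denotes the concentration required for 50% inhibition of growth.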 Activity calls are given as the source filed them. No stated cut-off is given here; in the data, active = GI50 up to about 1.1 µM and inactive = higher.

Experiments:
Test in all cases: NCI tumour cell line growth inhibition, 48 h
SF-268 = system: SF-268
OVCAR-3 = system: OVCAR-3
NCI-H226 = system: NCI-H226
MCF7 = system: MCF7
OVCAR-5 = system: OVCAR-5
HT-29 = system: HT-29
OVCAR-8 = system: OVCAR-8
NCI-H23 = system: NCI-H23
NCI/ADR-RES = system: NCI/ADR-RES
SNB-19 = system: SNB-19
KM12 = system: KM12
HOP-62 = system: HOP-62
UO-31 = system: UO-31
MDA-MB-435 = system: MDA-MB-435
SW-620 = system: SW-620
RPMI-8226 = system: RPMI-8226
NCI-H460 = system: NCI-H460
MDA-MB-231 = system: MDA-MB-231
UACC-62 = system: UACC-62
NCI-H522 = system: NCI-H522

Measured: GI50

Cc1cc(C)c(N[S+]([O-])c2cccc(Cl)c2)c(C)c1 (stereo not drawn)
inactive: SF-268 > 100 µM | OVCAR-3 > 100 µM | NCI-H226 > 100 µM | MCF7 > 100 µM | OVCAR-5 > 100 µM | HT-29 > 100 µM | OVCAR-8 > 100 µM | NCI-H23 > 100 µM | NCI/ADR-RES > 100 µM | SNB-19 > 100 µM | KM12 > 100 µM | HOP-62 > 100 µM | UO-31 > 100 µM | MDA-MB-435 > 100 µM | SW-620 > 100 µM | RPMI-8226 > 100 µM | NCI-H460 > 100 µM

CC1(C)CC(=O)c2c(nc3ccc4ccccc4c3c2-c2ccc(NC(=O)CCCCC(=O)Nc3ccc(-c4c5c(nc6ccc7ccccc7c46)CC(C)(C)CC5=O)cc3)cc2)C1
inactive: SF-268 > 100 µM | MDA-MB-231 > 100 µM | OVCAR-3 > 100 µM | NCI-H226 > 100 µM | MCF7 > 100 µM | OVCAR-5 > 100 µM | HT-29 > 100 µM | OVCAR-8 > 100 µM | NCI-H23 > 100 µM | NCI/ADR-RES > 100 µM | SNB-19 > 100 µM | KM12 > 100 µM | HOP-62 > 100 µM | UO-31 > 100 µM | MDA-MB-435 > 100 µM | SW-620 > 100 µM | RPMI-8226 > 100 µM | NCI-H460 > 100 µM | UACC-62 > 100 µM

C=C(C)C12CC(COC(=O)c3ccccc3)C34OC5(OC1C3C1OC1(CO)C(O)C1(O)C(OC(=O)c3ccccc3)C(C)C(C(C)CCCCCCC5O)C14)O2 (stereo not drawn)
inactive: NCI-H522 46.5 µM | SF-268 52.1 µM | MDA-MB-231 > 78.2 µM | OVCAR-3 63 µM | NCI-H226 40.7 µM | MCF7 72.6 µM | OVCAR-5 88.7 µM | HT-29 19.5 µM | OVCAR-8 60.4 µM | NCI-H23 56.2 µM | NCI/ADR-RES 42.4 µM | SNB-19 > 100 µM | KM12 40.8 µM | UO-31 70.1 µM | RPMI-8226 18.8 µM | NCI-H460 33.6 µM | UACC-62 > 100 µM

CCN(CC)CC1CN=C(N)O1 (stereo not drawn)
inactive: MDA-MB-231 > 100 µM | OVCAR-3 > 100 µM | NCI-H226 > 100 µM | MCF7 > 100 µM | OVCAR-5 > 100 µM | OVCAR-8 > 100 µM | NCI-H23 > 100 µM | NCI/ADR-RES > 100 µM | SNB-19 > 100 µM | KM12 > 100 µM | HOP-62 > 100 µM | UO-31 > 100 µM | MDA-MB-435 > 100 µM | SW-620 > 100 µM | RPMI-8226 > 100 µM | NCI-H460 > 100 µM | UACC-62 > 100 µM

OC1CCN2Cc3ccccc3N=C12 (stereo not drawn)
inactive: SF-268 > 100 µM | MDA-MB-231 > 100 µM | OVCAR-3 > 100 µM | NCI-H226 > 100 µM | MCF7 > 100 µM | OVCAR-5 > 100 µM | HT-29 > 100 µM | OVCAR-8 > 100 µM | NCI-H23 > 100 µM | NCI/ADR-RES > 100 µM | SNB-19 > 100 µM | KM12 > 100 µM | HOP-62 > 100 µM | UO-31 > 100 µM | MDA-MB-435 > 100 µM | SW-620 > 100 µM | RPMI-8226 > 100 µM | NCI-H460 > 100 µM | UACC-62 > 100 µM

CC1(O)Oc2ccc3ccccc3c2C=C1C(N)=O (stereo not drawn)
inactive: SF-268 71.9 µM | MDA-MB-231 38.9 µM | MCF7 > 100 µM | NCI-H23 > 100 µM | SNB-19 > 100 µM | KM12 > 100 µM | HOP-62 36.7 µM | UO-31 > 100 µM | MDA-MB-435 > 100 µM | SW-620 > 100 µM | RPMI-8226 33.3 µM | NCI-H460 61.1 µM | UACC-62 > 100 µM

Cc1ccc(Nc2nc(C)c(C(=O)CC(=O)C(=O)Nc3ccc(Cl)cc3)s2)cc1
inactive: NCI-H522 > 100 µM | SF-268 49.5 µM | MDA-MB-231 56.5 µM | OVCAR-3 > 100 µM | MCF7 > 100 µM | OVCAR-5 > 100 µM | NCI-H23 > 100 µM | SNB-19 > 100 µM | KM12 > 100 µM | HOP-62 > 100 µM | UO-31 > 100 µM | MDA-MB-435 > 100 µM | SW-620 > 100 µM | RPMI-8226 > 100 µM | NCI-H460 > 100 µM | UACC-62 > 100 µM

NS(=O)(=O)c1cccc(NC(=S)NC(=O)Nc2ccc(Cl)c(Cl)c2)c1
inactive: NCI-H522 12.8 µM | SF-268 22.5 µM | MDA-MB-231 17.7 µM | MCF7 18.3 µM | OVCAR-5 25 µM | HT-29 25.9 µM | OVCAR-8 17.3 µM | NCI-H23 15.8 µM | NCI/ADR-RES 15.9 µM | SNB-19 21.2 µM | KM12 15.8 µM | HOP-62 15.5 µM | UO-31 16.6 µM | SW-620 19 µM | RPMI-8226 16.9 µM | NCI-H460 16.7 µM | UACC-62 13.3 µM

CC1=CC(=O)/C(=C/NC(=S)NCCc2ccccc2)C(=O)O1
inactive: MDA-MB-231 > 100 µM | OVCAR-3 > 100 µM | NCI-H226 > 100 µM | MCF7 > 100 µM | OVCAR-5 > 100 µM | HT-29 > 100 µM | OVCAR-8 > 100 µM | NCI-H23 > 100 µM | NCI/ADR-RES > 100 µM | SNB-19 > 100 µM | KM12 > 100 µM | HOP-62 > 100 µM | UO-31 > 100 µM | MDA-MB-435 > 100 µM | SW-620 > 100 µM | NCI-H460 > 100 µM

Cc1cc(C)nc(NC(=S)Nc2ccccc2Cl)c1
inactive: NCI-H522 > 100 µM | SF-268 > 100 µM | OVCAR-3 > 100 µM | NCI-H226 > 100 µM | MCF7 > 100 µM | OVCAR-5 > 100 µM | HT-29 > 100 µM | OVCAR-8 > 100 µM | NCI/ADR-RES > 100 µM | SNB-19 > 100 µM | KM12 > 100 µM | HOP-62 > 100 µM | UO-31 > 100 µM | MDA-MB-435 > 100 µM | SW-620 > 100 µM | RPMI-8226 > 100 µM | NCI-H460 > 100 µM | UACC-62 > 100 µM

CC(=O)NC1(C)CCC(C(C)(C)NC(C)=O)CC1 (stereo not drawn)
inactive: SF-268 > 100 µM | MDA-MB-231 > 100 µM | OVCAR-3 > 100 µM | NCI-H226 > 100 µM | MCF7 > 100 µM | OVCAR-5 > 100 µM | HT-29 > 100 µM | OVCAR-8 > 100 µM | NCI-H23 > 100 µM | NCI/ADR-RES > 100 µM | SNB-19 > 100 µM | KM12 > 100 µM | HOP-62 > 100 µM | UO-31 > 100 µM | MDA-MB-435 > 100 µM | SW-620 > 100 µM | RPMI-8226 > 100 µM | NCI-H460 > 100 µM | UACC-62 > 100 µM

O=S(=O)(c1ccccc1)N1CN2CN(C1)CN(S(=O)(=O)c1ccccc1)C2
inactive: MDA-MB-231 > 100 µM | OVCAR-3 > 100 µM | NCI-H226 > 100 µM | MCF7 > 100 µM | OVCAR-5 > 100 µM | HT-29 > 100 µM | OVCAR-8 > 100 µM | NCI-H23 > 100 µM | NCI/ADR-RES > 100 µM | SNB-19 > 100 µM | KM12 > 100 µM | HOP-62 > 100 µM | UO-31 > 100 µM | MDA-MB-435 > 100 µM | SW-620 > 100 µM | RPMI-8226 > 100 µM | NCI-H460 > 100 µM | UACC-62 > 100 µM

CCN(CC)c1ccc(C2Nc3ccc4ccccc4c3C3=C2C(=O)CCC3)cc1 (stereo not drawn)
inactive: SF-268 27.5 µM | MDA-MB-231 11.7 µM | OVCAR-3 16.4 µM | NCI-H226 35.8 µM | MCF7 40.3 µM | OVCAR-5 > 100 µM | HT-29 55.7 µM | OVCAR-8 14.7 µM | NCI-H23 75 µM | NCI/ADR-RES 26.6 µM | SNB-19 37.3 µM | KM12 > 100 µM | HOP-62 20.4 µM | UO-31 26.1 µM | MDA-MB-435 54.6 µM | SW-620 > 100 µM | RPMI-8226 > 100 µM | NCI-H460 > 100 µM | UACC-62 24.7 µM

O=C1O[C@H](C(Cl)(Cl)Cl)N2CCCC12 (stereo partly drawn)
inactive: NCI-H522 > 100 µM | SF-268 > 100 µM | OVCAR-3 > 100 µM | NCI-H226 > 100 µM | OVCAR-5 > 100 µM | HT-29 > 100 µM | OVCAR-8 > 100 µM | NCI-H23 > 100 µM | SNB-19 > 100 µM | KM12 > 100 µM | HOP-62 > 100 µM | UO-31 > 100 µM | SW-620 > 100 µM | RPMI-8226 > 100 µM | NCI-H460 > 100 µM | UACC-62 > 100 µM

CC(=O)/C=C/c1ccc(C)cc1
inactive: NCI-H522 > 100 µM | SF-268 > 100 µM | OVCAR-3 > 100 µM | NCI-H226 > 100 µM | OVCAR-5 > 100 µM | HT-29 > 100 µM | OVCAR-8 > 100 µM | NCI-H23 > 100 µM | SNB-19 > 100 µM | KM12 > 100 µM | HOP-62 > 100 µM | UO-31 > 100 µM | SW-620 > 100 µM | RPMI-8226 > 100 µM | NCI-H460 > 100 µM | UACC-62 > 100 µM

CCOC(=O)c1c(C(F)(F)F)oc2c1ccc1nc3nonc3nc12
inactive: NCI-H522 15.1 µM | SF-268 17.9 µM | OVCAR-3 16.5 µM | NCI-H226 19.9 µM | OVCAR-5 17.2 µM | HT-29 15.5 µM | OVCAR-8 16.3 µM | NCI-H23 13.4 µM | SNB-19 18.2 µM | KM12 19.3 µM | HOP-62 13.8 µM | UO-31 19.2 µM | SW-620 16.8 µM | RPMI-8226 6.07 µM | NCI-H460 23.3 µM | UACC-62 15 µM
